Here are results for 3 molecules from patent US10660908B2, “Pharmaceutical spray composition comprising a vitamin D analogue and a corticosteroid” (LEO Pharma A/S, priority 2010, dated 2020).

Data set [1] can be described thus: Solubility of calcipotriol and BDP in different propellant mixtures (Example 1). The conditions noted are these: for dissolution in propellant: 100% DME as the propellant; for dissolution in propellant mixture: ratio of butane to DME of 4:3, in both the propellant and vehicle phases, 67 mg BDP, 13 mg calcipotriol, 20 g vehicle. It counts as physicochemical. On the procedure:
2×12 100 ml glass bottles fitted with a valve and actuator were filled with compositions containing 67 mg BDP, 13 mg calcipotriol, 20 g vehicle (comprising liquid paraffin, white soft paraffin and PPG-15-stearyl ether) and varying amounts of DME and butane as shown in Table 1. The composition formed a continuous phase and a dispersed phase presumed to be composed of long-chain alkanes (with ≥50 carbon atoms in the chain) present in the white soft paraffin. The dispersed phase sedimented in the bottom portion of the composition on standing. Thus, the top portion of the composition contained only the continuous phase, while the bottom portion of the composition was composed of a mixture of continuous and dispersed phases.
The sprayed samples were placed on a water bath at 40° C. for 5 hours until the propellant had evaporated. The samples were then cooled for 1 hour at room temperature.
Column: Agilent Zorbas Eclipse Plus C18, 150×4.6 mm, 3.5 μm
Mobile phase: acetonitrile/methanol/0.01M (NH4)2HPO4, pH 6.0, 25:45:30 (v/v/v)
Detection: […]. Calculation at 264 nm for calcipotriol and 240 nm for BDP

Data set [2] can be described thus: Physical stability by polarized light microscopy (Example 1). It counts as physicochemical. To be noted: compositions left to stand for 4 months. On the procedure: The physical stability of calcipotriol and BDP in the composition was determined by polarized light microscopy.
Data set [3] is described as follows: Chemical stability of calcipotriol/BDP in the presence of different inner lacquers (Example 6). In kind it is physicochemical. Here is the method:
Batches of Composition A prepared as described in Example 2 and placed in aluminium spray containers provided with two different types of inner lacquer, an epoxyphenol based lacquer (HOBA 7940/7407) and a polyimide-polyamide based lacquer (HOBA 8460), respectively, were tested for chemical stability of the active ingredients after standing for 1 month at 40° C. by spraying samples of each batch into a glass and subjecting them to HPLC by the procedure described in Example 3.

The nature of data set [4]: Chemical stability of calcipotriol/BDP in the presence of different gasket materials (Example 8). In kind it is physicochemical. On the procedure:
In order to test the compatibility of the composition with various gasket materials, samples were prepared with Composition E, see Example 2, filled in aluminum spray containers with a polyamide-polyimide inner lacquer and closed with a valve cup crimped to the container body. To each container, 10 pieces or an equivalent amount of gasket test material were added to the spray container and allowed to be submerged in the composition. The containers were stored at 25° C. or 40° C. and tested after 1 and 3 months at 40° C., and after 3 months at 25° C.
After storage, the composition was sprayed out in a glass bottle, and the propellants were allowed to evaporate for 2 days. The non-volatile part of the composition was analyzed for calcipotriol, betamethasone dipropionate and their related organic impurities.
The amount of calcipotriol was determined by HPLC after liquid extraction followed by a controlled isomerization at 50° C. Methyl testosterone was used as the internal standard. The following conditions were used for the HPLC analysis:
Column: LiChrospher RP-18, 125×4 mm, 5 μm
Mobile phase: Acetonitrile/methanol/0.01M (NH4)2PO4 (20:50:30)
Run time: Approx. 9 minutes
The organic impurities related to calcipotriol were determined by HPLC after liquid extraction, using the following conditions:
Column: YMC ODS-AM, 150×4.6 mm, 3 μm
Run time: 2 times the retention time of calcipotriol
The amount of betamethasone dipropionate was determined by HPLC after liquid extraction, using beclomethasone dipropionate as internal standard and the following HPLC conditions:
Column: Superspher RP-18, 75×4 mm, 4 μm
Mobile phase: Acetonitrile/water (50:55)
The organic impurities related to betamethasone dipropionate were extracted by liquid extraction and analyzed by HPLC using the following conditions:
Mobile phase: Acetonitrile/0.05M (NH4)2PO4 pH 7 (50:55)
Run time: Approx. 20 minutes

For data set [5] the following is noted: one study, M. Hannuksela et al., Contact Dermatitis 1, 1975; cited from earlier work.
[6] abbreviates: Composition E in contact with Buna and NPR gaskets.
[7] abbreviates: Composition E in contact with Viton and EPDM gaskets.

The structures appear in SMILES notation. “Also recorded” adds a separate entry of the source.

For the molecule `CCC(=O)OCC(=O)[C@@]1(OC(=O)CC)[C@@H](C)C[C@H]2[C@@H]3CCC4=CC(=O)C=C[C@]4(C)[C@@]3(F)[C@@H](O)C[C@@]21C` [betamethasone dipropionate], in data set [1], the dissolution in propellant entry is “completely dissolved” and the “dissolution in propellant mixture” value is “completely dissolved”. For the same molecule, the “physical stability (recrystallization)” value in data set [2] is listed as “neither calcipotriol or BDP recrystallize”. Also, in data set [3] (epoxyphenol vs polyimide-polyamide lacquer), the “chemical stability: effect of the composition of the inner lacquers” value was “much less affected”. Further, in data set [4] (setting [6]), the “stability (in words)” value is “decomposition”. Besides, the “stability (in words)” value in data set [4] (setting [7]) was “did not have negative impact”.
As for `C=C1/C(=C\C=C2/CCC[C@]3(C)[C@@H]([C@H](C)/C=C/[C@@H](O)C4CC4)CC[C@@H]23)C[C@@H](O)C[C@@H]1O` [calcipotriol, Calcipotriol], the dissolution in propellant result in data set [1] was “completely dissolved”. Also, the “dissolution in propellant mixture” value in data set [1] is “completely dissolved”. Moreover, in data set [2], the “physical stability (recrystallization)” value is “neither calcipotriol or BDP recrystallize”. In addition, the “chemical stability (in words)” value in data set [3] (epoxyphenol based inner lacquer of the spray container) is given as “unacceptably degraded; also recorded: unacceptable chemical degradation”; in data set [3] (polyimide-polyamide based inner lacquer), “acceptable; also recorded: satisfactory”. Moreover, the “stability (in words)” value in data set [4] (setting [6]) was “decomposition”; in data set [4] (setting [7]), “did not have negative impact”.
For the molecule `CC(O)CO` (centres unmarked) [propylene glycol], the “number of irritant reactions” value in data set [5] is 12.5%.
